Reference: patent US6734211B1, “Compositions and methods for promoting nerve regeneration” (Oregon Health & Sciences University, priority 1999, dated 2004)

Experiments:
[1] = system: SH-SY5Y human neuroblastoma cells; assay: Neurite outgrowth of SH-SY5Y cells in the presence of NGF; assay type: cell-based; settings: for Mean Length of Top 50% of Neuritic Processes: 168 hours; for neurite outgrowth, effect of the compound: with NGF, concentration dependence
Experimental: This Example illustrates that FK506 and geldanamycin promote nerve regeneration by a common mechanism. SH-SY5Y human neuroblastoma cells were maintained in DMEM medium (GIBCO) supplemented with 10% fetal calf serum (SIGMA), 50 IU/mL penicillin, and […] streptomycin (GIBCO) at 37° C. in 7% CO2. Cells were plated in six-well plates at 1×10^6 cells/well and treated with […] aphidicolin (SIGMA). At five days, cells were washed, treated with nerve growth factor (NGF) (Boehringer Mannheim, Indianapolis, Ind.) at 10 ng/mL ([…]) (Calbiochem-Novabiochem Int'l., La Jolla, Calif.) and/or geldanamycin (0.1, 1, and 10 nM) (Calbiochem-Novabiochem, La Jolla, Calif.) dissolved in the DMEM medium. Media was changed at 96 hours and replaced with fresh media containing the compounds (NGF plus FK506 and/or geldanamycin) for an additional 72 hours (total time, 168 hours). The top 50% of axonal lengths were selected for statistical analysis. All experiments were run in duplicate wells and repeated at least twice for reproducibility.
(§1) For analysis of neurite process length of cells, 20 fields per well were randomly photographed at 72 and 168 hours. Neurite lengths were measured on photographic prints using a Houston Instrument HI-PAD digitizing tablet connected to an IBM XT computer with appropriate software (Bioquant IV, R&M Biometrics, Nashville, Tenn.); only those processes greater than two times the cell body length were measured. Data from identically treated wells were not different and were therefore combined. […] Histograms were compared using a Mann-Whitney U test, which makes no assumptions about the shape of the distribution.
Neuroblastoma SH-SY5Y cells were used to examine human neurite outgrowth in vitro and to explore which neuroimmunophilin mediates the effect.

hippocampal cells = assay: Neurite outgrowth of hippocampal cells after 72 hours; assay type: cell-based
Experimental: as §1
Utilizing the in vitro assay described in Example 2, the effect of radicicol on neurite outgrowth was investigated. Hippocampal cells were treated with radicicol at a concentration of 0.1 ng/mL and at a concentration of 10 ng/mL. The neurite outgrowth for radicicol treated cells was compared to the outgrowth for untreated cells and for cells treated with 10 ng/mL of NGF.
Utilizing the in vitro assay described in Example 2, the effect of heat alone or in combination with various compounds on neurite outgrowth was investigated. […] FIG. 5 also illustrates that a combination of heat treatment and treatment with both NGF, and Hsp-90 antibodies is not as effective as the combination of heat and NGF treatment. […]

[2] = system: hippocampal neurons of FKBP-12 knockout mice; assay: Axonal length in primary neuronal hippocampal cultures from FKBP-12 knockout mice; assay type: cell-based
Experimental: (§2) FKBP-12 knockout mice (Shou, et al., Nature 391:489, 1998) were used to test whether FKBP-12 is necessary for FK506's ability to increase nerve elongation. Such mice usually die from severe cardiomyopathy between embryonic day 14.5 (E14.5) and birth, consistent with the known association between FKBP-12 and calcium release channels. […] Primary neuronal hippocampal cultures were prepared from E18.5 homozygote FKBP-12 knockout and wild-type mice.

[3] = system: hippocampal neurons of wild-type mice; assay: Axonal length in primary neuronal hippocampal cultures from wild-type mice; assay type: cell-based
Experimental: as §2

sciatic nerve = settings: rat, following a sciatic nerve crush lesion; cited from earlier work
[4] = geldanamycin 10 nM co-treatment

In the case of `COC1=C2C[C@@H](C)C[C@H](OC)[C@H](O)[C@@H](C)/C=C(\C)[C@H](OC(N)=O)[C@@H](OC)/C=C\C=C(/C)C(=O)NC(=CC1=O)C2=O` [Geldanamycin, geldanamycin], the Mean Length of Top 50% of Neuritic Processes ([1]; geldanamycin 1 nM + NGF 10 ng/mL) is reported as 128 µm, the Mean Length of Top 50% of Neuritic Processes ([1]; geldanamycin 10 nM + NGF 10 ng/mL) is reported as 110 µm and the “effect on neurite outgrowth promotion by FK506, dexamethasone or β-estradiol” value ([1]; geldanamycin 0.1 nM co-treatment) is reported as “less effective in inhibiting the neurite outgrowth-promoting effect of all these compounds”. The “effect on neurite outgrowth promotion by FK506, dexamethasone or β-estradiol” value [1, 4] was “inhibited neurite outgrowth promotion by FK506 , dexamethasone or β-estradiol”, the “effect on neurite outgrowth promotion by FKBP-52 antibody” value [1, 4] was “enhanced the neurite outgrowth-promoting effect of the FKBP-52 antibody” and the neurite outgrowth ([1]; geldanamycin 0.1-10 nM alone) was “increased neurite outgrowth in a concentration-dependent fashion”. For the same molecule, the “neurite outgrowth, effect of the compound” value (“neurite outgrowth, effect” for short) [1] was “stimulate neurite outgrowth in a concentration dependent manner”.

For `C[C@@H]1C[C@H]2O[C@@H]2/C=C\C=C\C(=O)Cc2c(Cl)c(O)cc(O)c2C(=O)O1` [radicicol], the “neurite outgrowth (cumulative histogram, FIG. 3)” value (hippocampal cells; radicicol 0.1 ng/mL and 10 ng/mL vs NGF 10 ng/mL) was “more effective than NGF alone in stimulating outgrowth”.

For `COc1cccc(-c2cc(=O)c3ccccc3o2)c1N` [PD 098059], the “effect on neurite outgrowth by NGF and FK-506 (FIG. 6)” value (hippocampal cells; 2 concentrations) was “blocks neurite outgrowth by NGF and FK-506 in a concentration dependent fashion”, the “effect on neurite outgrowth by radicicol (FIG. 7)” value (hippocampal cells; 2 concentrations) was “blocks the action of radicicol in a concentration dependent fashion” and the “effect on neurite outgrowth by radicicol (FIG. 7)” value (hippocampal cells; highest concentration) was “almost completely blocks activity”.

For `[Na+].[Na+].[O]=[Mo](=[O])([O-])[O-]` [molybdate, sodium molybdate], the “effect on neurite outgrowth promotion by FK506” value ([1]; molybdate 20 mM) was “reduced the neurite outgrowth promotion elicited by FK506”, the “effect on neurite outgrowth promotion by FKBP-52 antibody” value ([1]; molybdate 20 mM) was “inhibited the neurite outgrowth-promoting effects of FKBP-52 antibody” and the “effect on neurite outgrowth promotion by β-estradiol and geldanamycin” value ([1]; molybdate 20 mM) was “completely [Mann-Whitney U test (α=0.05)] inhibited the neurite outgrowth-promoting effect of β-estradiol and geldanamycin”. The “neurite outgrowth-promoting effect of molybdate in the presence of dexamethasone” value ([1]; molybdate 20 mM) was “significantly [Mann-Whitney U test (α=0.05)] reduced compared to molybdate alone” and the neurite outgrowth ([1]; molybdate 20 mM itself) was “agonist effect on neurite outgrowth”.

With `C=CC[C@@H]1/C=C(\C)C[C@H](C)C[C@H](OC)[C@H]2O[C@@](O)(C(=O)C(=O)N3CCCC[C@H]3C(=O)O[C@H](/C(C)=C/[C@@H]3CC[C@@H](O)[C@H](OC)C3)[C@H](C)[C@@H](O)CC1=O)[C@H](C)C[C@@H]2OC` [FK506] the Mean Length of Top 50% of Neuritic Processes ([1]; FK506 10 nM + NGF 10 ng/mL) was 156 µm, the “neurite outgrowth (cumulative histograms of neurite lengths)” value ([1]; FK506 10 pM-10 nM) was “increases neurite outgrowth” and the “neurite outgrowth (cumulative histograms of neurite lengths)” value ([1]; FK506 100 nM) was “less effective”. For the same molecule, the “neurite outgrowth (cumulative histograms of neurite lengths)” value ([1]; FK506 1000 nM or greater) was “neurite outgrowth was inhibited”, the “neurite outgrowth, effect” value [1] was “stimulate neurite outgrowth in a concentration dependent manner” and the “Mean axonal lengths of hippocampal neurons” value ([2]; FK506-treated cultures, FKBP-12 knockout, mean±S.E.M.) was 264±18.2. For the same molecule, the “increase over non-treated values” ([2]; FKBP-12 knockout cells) was 30%, the “Mean axonal lengths of hippocampal neurons” value ([3]; FK506-treated cultures, wild-type, mean±S.E.M.) was 276±11.1 and the “increase over non-treated values” ([3]; wild-type cells) was 26%. The “functional recovery and axonal regeneration” value (sciatic nerve) was “speed functional recovery and axonal regeneration in the rat in a dose-dependent manner”.

In the case of `C[C@]12CC[C@@H]3c4ccc(O)cc4CC[C@H]3[C@@H]1CC[C@@H]2O` [β-estradiol], the “neurite outgrowth compared with dexamethasone” value ([1]; 50 nM each) is reported as “greater positive effect on neurite outgrowth than dexamethasone (50 nM)” and the “neurite outgrowth, effect” value [1] is reported as “significantly increased neurite outgrowth in SH-SY5Y cells in a concentration-dependent manner”.

B1: NGF: nerve growth factor (Boehringer Mannheim) (protein, UniProt P01139 122-241, looked up)
Beta-nerve growth factor: SSTHPVFHMGEFSVCDSVSVWVGDKTTATDIKGKEVTVLAEVNINNSVFRQYFFETKCRASNPVESGCRGIDSKHWNSYCTTTHTFVKALTTDEKQAAWRFIRIDTACVCVLSRKATRRG
modifications: Beta-nerve growth factor
For B1, the Mean Length of Top 50% of Neuritic Processes ([1]; NGF 10 ng/mL alone) was 108 µm and the “neurite outgrowth (cumulative histogram, FIG. 4)” value (hippocampal cells; NGF in combination with heat) was “more effective than either heat or NGF treatment alone in stimulating neurite outgrowth”.
